Data published in patent publication US7262177B2, “Conjugates of glycosylated/galactosylated peptide, bifunctional linker, and nucleotidic monomers/polymers, and related compositions and methods of use” (priority 2000, dated 2007).
Read-outs that look alike come from different tables or passages of the source.

Tests used:
[1] = biological target: T1, thymidylate synthase (TS) (Homo sapiens, UniProt P04818); experiment: Thymidylate synthase activity in treated Hep G2 cells; assay type: cell-based; conditions: 1 μM, 96 hrs post treatment
T1 construct: endogenous in cells; host or cells: Hep G2
T1 sequence (P04818 2-313 limits assumed): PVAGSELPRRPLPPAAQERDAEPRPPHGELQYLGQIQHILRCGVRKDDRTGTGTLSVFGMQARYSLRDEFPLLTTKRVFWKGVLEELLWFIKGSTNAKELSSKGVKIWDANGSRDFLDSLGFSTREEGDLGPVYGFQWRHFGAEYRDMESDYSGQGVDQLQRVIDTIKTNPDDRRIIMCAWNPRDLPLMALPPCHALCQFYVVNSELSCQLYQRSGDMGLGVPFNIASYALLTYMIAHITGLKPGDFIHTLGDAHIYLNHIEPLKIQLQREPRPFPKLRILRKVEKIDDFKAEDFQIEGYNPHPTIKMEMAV
Method: Briefly, 10^5 Hep G2 or TSU cells were grown in culture for 48 h and then the medium was made to a concentration of 1 μM with either po 1-mer or unconjugated 5FdU. At regular intervals (24 hrs, 48 hrs, 72 hrs and 96 hrs) after treatment, the medium was removed and replaced with medium containing deoxyuridine/[^3H]-deoxyuridine mixtures. Cells were incubated at 37° C. for 30 min. Cell medium was then removed and precipitated with charcoal. The supernatant was then counted to determine the presence of [^3H]-H2O. The measurable release of [^3H] as [^3H]-H2O from deoxyuridine, 5′-monophosphate (dUMP) substrate reflects thymidylate synthase activity.

[2] = biological target: T2, thymidylate synthetase (TS) (Mus musculus, UniProt P07607); experiment: Thymidylate synthetase activity in mouse liver extract ([5-3H]-dUMP tritium release); assay type: biochemical, CD-1 mouse
T2 construct: from tissue; host or cells: CD-1 mouse liver, supernatant of homogenate
T2 sequence (P07607 whole entry): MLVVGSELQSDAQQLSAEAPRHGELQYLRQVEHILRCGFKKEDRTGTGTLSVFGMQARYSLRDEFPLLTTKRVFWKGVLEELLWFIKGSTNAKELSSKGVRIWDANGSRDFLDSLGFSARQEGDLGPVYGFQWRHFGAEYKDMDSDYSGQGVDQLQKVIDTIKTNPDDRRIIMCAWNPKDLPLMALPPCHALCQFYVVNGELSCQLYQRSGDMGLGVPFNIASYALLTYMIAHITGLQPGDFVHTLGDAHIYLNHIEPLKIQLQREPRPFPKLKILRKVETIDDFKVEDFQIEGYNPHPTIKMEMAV
Method: A CD-1 mouse (Charles River, Wilmington, Mass.) was sacrificed and the liver removed. Approximately one gram of the tissue was subsequently washed in DPBS (Mediatech, Herndon, Va.) and placed in 3 volumes of buffer H. The tissue was then homogenized with a Dounce homogenizer and subsequently sonicated by three 15-second bursts followed by 1 min on ice. The tissue extract was then centrifuged for 10 min at 4,000 g and the resultant supernatant was spun for 20 min at 7,000 g. Three equal aliquots of this supernatant were then added to 0.9 μCi aliquots of 2′-Deoxyuridine 5′-monophosphate, diammonium salt, [5-^3H]. At this point, 5-Fluoro-2′-deoxyuridine 5′-monothiophosphate was added to one aliquot, 5-Fluoro-2′-deoxyuridine 5′-monophosphate was added to a second aliquot, and one aliquot was left untreated. The three samples were incubated at 37° C. for 30 min and precipitated with charcoal. The resultant supernatant was centrifuged at 1,600 g for 10 min. Aliquots of each sample were then counted using a Beckman scintillation counter. Percent (%) inhibition is expressed as follows: […]
These assays determined the ability of either 10 nM FdUMP (phosphodiester substrate) or FdUMPS (phosphorothioate substrate) to inhibit thymidylate synthetase (TS) activity. The objective of this assay was to determine the ability of TS to convert [5-^3H]-dUMP to ^3H-H2O.

[3] = Stability of 1-mer conjugates in RPMI 1640+10% FCS (PAGE); assay type: in vitro ADME; conditions: up to 8 hrs, PAGE analysis
Method: Initially, the stability of the two neoglycoconjugates was assessed in RPMI 1640+10% FCS. […] In terms of cellular uptake, the po-linked conjugate at a dose of 1 μM was taken up rapidly in a progressive manner by Hep G2 cells in vitro to the extent of 24.75 pmoles/10^6 cells at 480 min. The rate of cellular uptake was next analyzed with respect to the administered dose of the conjugate. […] This amount doubled within the next 30 min and peaked at 25 pmoles/million cells at 480 min. […] While the administration of 4 μM conjugate led to a linear increase of conjugate uptake with respect to time, the rate at which cellular uptake occurred upon the administration of 8 μM conjugate rose sharply at 120 min.

Hep G2 cells = experiment: Cellular uptake of 5FU 1-mer conjugates by Hep G2 cells; assay type: cell-based, human; conditions: 1 μM, 480 min
Method: Hep G2 cells were passaged into 2 cm^2 wells and grown in RPMI 1640 medium, which was supplemented with L-glutamine (10-040, CV) to a density of 0.3×10^6 to 0.4×10^6 cells per well (48-well cluster plate, Costar, Cambridge, Mass.). […] Then, an aliquot of the medium was saved for scintillation counting and the remainder of the medium aspirated from the well. The cells were washed with D-PBS (2×0.5 ml), treated with 0.25% trypsin (37° C., 2 minutes; trypsin prepared in HBSS with 1.0 mM EDTA) and suspended in fresh growth medium containing 10% FCS. The suspended cells were layered over silicon oil (0.5 ml) in a 1.7 ml conical microcentrifuge tube and pelleted by centrifugation at 14,000 rpm (12,000 g) for 30 seconds. The supernatant was carefully decanted and the cell pellet was lysed with 100 μl of a solution containing 0.5% NP 40, 100 mM sodium chloride, 14 mM Tris/HCl and 30% acetonitrile. The amount of radioactivity, and by inference the amount of neoglycoconjugate or oligomer associated with the cell lysate, was determined by scintillation counting.
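Throughout, for % injected dose in BLADDER: male CD-1 mice given radiolabeled test agent intravenously, organs removed at each time point and dissolved, radioactivity per organ measured by scintillation counting with efficiency correction.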
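Throughout, for % injected dose in BLOOD: male CD-1 mice given radiolabeled test agent intravenously, organs removed at each time point and dissolved, radioactivity per organ measured by scintillation counting with efficiency correction.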
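Throughout, for % injected dose in HEART: male CD-1 mice given radiolabeled test agent intravenously, organs removed at each time point and dissolved, radioactivity per organ measured by scintillation counting with efficiency correction.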
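Throughout, for % injected dose in KIDNEY: male CD-1 mice given radiolabeled test agent intravenously, organs removed at each time point and dissolved, radioactivity per organ measured by scintillation counting with efficiency correction.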

O=c1[nH]c(=O)n([C@H]2C[C@H](O)[C@@H](CO)O2)cc1F [5FdU, 5-fluoro-2′-deoxyuridine]
reduction of TS activity [1]: approximately 20% | % injected dose in BLADDER (15 MIN after tail vein i.v.): 0.91 ± 0.07% | % injected dose in BLOOD (15 MIN after tail vein i.v.): 0.03 ± 0.02% | % injected dose in HEART (15 MIN after tail vein i.v.): 0.21 ± 0.13% | % injected dose in KIDNEY (15 MIN after tail vein i.v.): 0.42 ± 0.28% | % injected dose in LG INT (15 MIN after tail vein i.v.): 1.09 ± 0.25% | % injected dose in LIVER (15 MIN after tail vein i.v.): 9.56 ± 3.83% | % injected dose in LUNGS (15 MIN after tail vein i.v.): 0.17 ± 0.07% | % injected dose in MUSCLE (15 MIN after tail vein i.v.): 9.29 ± 4.9% | % injected dose in SM INT (15 MIN after tail vein i.v.): 0.7 ± 0.04% | % injected dose in SPLEEN (15 MIN after tail vein i.v.): 0.11 ± 0.044% | % injected dose in LIVER (15 MIN after tail vein i.v., listed as unconjugated 5FdU): less than 10% | % injected dose in BLADDER (30 MIN after tail vein i.v.): 2.3 ± 1.58% | % injected dose in BLOOD (30 MIN after tail vein i.v.): .008 ± .0025% | % injected dose in HEART (30 MIN after tail vein i.v.): 0.03 ± .004% | % injected dose in KIDNEY (30 MIN after tail vein i.v.): 0.38 ± 0.3% | % injected dose in LG INT (30 MIN after tail vein i.v.): 0.37 ± 0.19% | % injected dose in LIVER (30 MIN after tail vein i.v.): 8.8 ± 1.23% | % injected dose in LUNGS (30 MIN after tail vein i.v.): 0.05 ± 0.006% | % injected dose in MUSCLE (30 MIN after tail vein i.v.): 3.43 ± 1.06% | % injected dose in SM INT (30 MIN after tail vein i.v.): 0.61 ± 0.36% | % injected dose in SPLEEN (30 MIN after tail vein i.v.): 0.19 ± 0.26% | % injected dose in BLADDER (60 MIN after tail vein i.v.): 2.99 ± 1.01% | % injected dose in BLOOD (60 MIN after tail vein i.v.): .007 ± .0023% | % injected dose in HEART (60 MIN after tail vein i.v.): 0.28 ± 0.11% | % injected dose in KIDNEY (60 MIN after tail vein i.v.): 0.84 ± 0.31% | % injected dose in LG INT (60 MIN after tail vein i.v.): 1.04 ± 0.2% | % injected dose in LIVER (60 MIN after tail vein i.v.): 4.35 ± 1.35% | % injected dose in LUNGS (60 MIN after tail vein i.v.): 0.98 ± 0.3% | % injected dose in MUSCLE (60 MIN after tail vein i.v.): 22.84% | % injected dose in SM INT (60 MIN after tail vein i.v.): 3.57 ± 1.3% | % injected dose in SPLEEN (60 MIN after tail vein i.v.): 0.57 ± 0.18% | % injected dose in BLADDER (240 MIN after tail vein i.v.): 0.010 ± .015% | % injected dose in BLOOD (240 MIN after tail vein i.v.): 0.56 ± 0.28% | % injected dose in HEART (240 MIN after tail vein i.v.): 0.32 ± 0.10% | % injected dose in KIDNEY (240 MIN after tail vein i.v.): 0.44 ± 0.12% | % injected dose in LG INT (240 MIN after tail vein i.v.): 1.61 ± 0.59% | % injected dose in LIVER (240 MIN after tail vein i.v.): 3.97 ± 0.37% | % injected dose in LUNGS (240 MIN after tail vein i.v.): 1.03 ± 0.39% | % injected dose in MUSCLE (240 MIN after tail vein i.v.): 46.56% | % injected dose in SM INT (240 MIN after tail vein i.v.): 4.19 ± 1.18% | % injected dose in SPLEEN (240 MIN after tail vein i.v.): 0.38 ± 0.04% | % injected dose in BLADDER (480 MIN after tail vein i.v.): .001 ± .0006% | % injected dose in BLOOD (480 MIN after tail vein i.v.): 0.23 ± 0.14% | % injected dose in HEART (480 MIN after tail vein i.v.): 0.06 ± .02% | % injected dose in KIDNEY (480 MIN after tail vein i.v.): 0.13 ± .044% | % injected dose in LG INT (480 MIN after tail vein i.v.): 0.35 ± 0.09% | % injected dose in LIVER (480 MIN after tail vein i.v.): 1.25 ± 0.33% | % injected dose in LUNGS (480 MIN after tail vein i.v.): 0.08 ± 0.04% | % injected dose in MUSCLE (480 MIN after tail vein i.v.): 7.9 ± 1.64% | % injected dose in SM INT (480 MIN after tail vein i.v.): 1.37 ± 0.7% | % injected dose in SPLEEN (480 MIN after tail vein i.v.): 0.09 ± 0.05%

O=c1[nH]c(=O)n([C@H]2C[C@H](O)[C@@H](COP(=O)(O)O)O2)cc1F [FdUMP, 5-Fluoro-2′-deoxyuridine 5′-monophosphate]
biological activity relative to FdUMPS ([2]; 10 nM): approximately twice | inhibition at 0.01 µM ([2]; 10 nM inhibitor, 1 μM dUMP, read-out: Percent Inhibition of Thymidylate Synthetase Activity): 48% | inhibition at 0.01 µM ([2]; 10 nM inhibitor, 10 μM dUMP, read-out: Percent Inhibition of Thymidylate Synthetase Activity): 28%

O=c1[nH]c(=O)n([C@H]2C[C@H](O)[C@@H](COP(O)(O)=S)O2)cc1F [FdUMPS, 5-Fluoro-2′-deoxyuridine 5′-monothiophosphate]
inhibition at 0.01 µM ([2]; read-out: Percent Inhibition of Thymidylate Synthetase Activity, 10 nM inhibitor, 1 μM dUMP): 27% | inhibition at 0.01 µM ([2]; read-out: Percent Inhibition of Thymidylate Synthetase Activity, 10 nM inhibitor, 10 μM dUMP): 13%

CC(=O)N[C@H]1[C@H](OCCCCCCNC(=O)CC[C@H](NC(=O)CC[C@H](NC(=O)[C@H](Cc2ccc(O)cc2)NC(=O)C2CCC(CN3C(=O)CC(SCCCCCCOP(O)(=S)OC[C@H]4O[C@@H](n5cc(F)c(=O)[nH]c5=O)C[C@@H]4O)C3=O)CC2)C(=O)NCCCCCCO[C@@H]2O[C@H](CO)[C@H](O)[C@H](O)[C@H]2NC(C)=O)C(=O)NCCCCCCO[C@@H]2O[C@H](CO)[C@H](O)[C@H](O)[C@H]2NC(C)=O)O[C@H](CO)[C@H](O)[C@@H]1O (some centres unmarked) [ps 1-mer, YEE(ahGalNAc)3-SMCC-psFU]
stability in media containing 10% FCS [3]: stable | cellular uptake (Hep G2 cells): 24.98 pmoles/10^6 cells
